Results published in patent US20220259193A1, “KCNT1 INHIBITORS AND METHODS OF USE” (Praxis Precision Medicines, Inc., priority 2019, published 2022).
pIC50: −log10 of the molar value.

target: T1, KCNT1 (KNa1.1, Slack) (Homo sapiens, UniProt Q5JUK3); assay: KCNT1 patch clamp assay (SyncroPatch 384PE automated patch clamp); format: cell-based; conditions: tetracycline inducible HEK-TREX cell line; perforated patch; step from −80 mV to 0 mV; room temperature; read-out: KCNT1-WT IC50
T1 construct: expressed in transfected cells; host or cells: HEK-TREX (tetracycline-inducible HEK cell line)
T1 sequence (Q5JUK3 1-1230): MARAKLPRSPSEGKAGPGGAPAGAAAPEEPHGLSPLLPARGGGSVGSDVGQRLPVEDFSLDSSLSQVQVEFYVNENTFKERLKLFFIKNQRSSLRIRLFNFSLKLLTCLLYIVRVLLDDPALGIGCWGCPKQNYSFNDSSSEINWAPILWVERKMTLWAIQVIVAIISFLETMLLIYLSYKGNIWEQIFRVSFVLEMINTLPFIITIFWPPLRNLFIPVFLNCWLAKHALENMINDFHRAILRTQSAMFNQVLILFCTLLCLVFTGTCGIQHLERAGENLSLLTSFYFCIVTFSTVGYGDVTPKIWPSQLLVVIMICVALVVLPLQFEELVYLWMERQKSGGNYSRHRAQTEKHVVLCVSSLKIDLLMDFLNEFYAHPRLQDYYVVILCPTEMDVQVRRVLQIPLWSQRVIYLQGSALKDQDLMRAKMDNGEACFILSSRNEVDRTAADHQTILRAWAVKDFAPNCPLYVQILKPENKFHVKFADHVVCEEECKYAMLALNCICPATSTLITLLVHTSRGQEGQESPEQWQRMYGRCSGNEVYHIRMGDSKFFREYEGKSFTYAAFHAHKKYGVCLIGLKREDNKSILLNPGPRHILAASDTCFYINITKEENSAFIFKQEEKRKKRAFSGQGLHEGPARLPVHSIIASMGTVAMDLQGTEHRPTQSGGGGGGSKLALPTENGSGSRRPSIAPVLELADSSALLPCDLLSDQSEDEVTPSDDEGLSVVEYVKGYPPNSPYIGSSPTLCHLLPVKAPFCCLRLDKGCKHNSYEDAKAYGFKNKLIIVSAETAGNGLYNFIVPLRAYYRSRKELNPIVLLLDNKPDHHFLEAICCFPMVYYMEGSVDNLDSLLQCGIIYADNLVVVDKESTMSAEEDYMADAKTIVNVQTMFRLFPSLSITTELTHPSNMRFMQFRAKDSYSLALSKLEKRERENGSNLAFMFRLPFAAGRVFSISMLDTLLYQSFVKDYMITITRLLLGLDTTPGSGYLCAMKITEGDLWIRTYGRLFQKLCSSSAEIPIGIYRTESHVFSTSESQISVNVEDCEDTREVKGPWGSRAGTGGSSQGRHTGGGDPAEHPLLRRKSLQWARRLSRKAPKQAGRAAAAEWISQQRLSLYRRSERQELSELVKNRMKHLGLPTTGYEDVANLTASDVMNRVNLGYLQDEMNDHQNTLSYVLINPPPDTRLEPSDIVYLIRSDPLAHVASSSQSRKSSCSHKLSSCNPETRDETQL
Procedure: KCNT1—Patch Clamp Assay Inhibition of KCNT1 (KNa1.1, Slack) was evaluated using a tetracycline inducible cell line (HEK-TREX). Currents were recorded using the SyncroPatch 384PE automated, patch clamp system. Pulse generation and data collection were performed with PatchController384 V1.3.0 and DataController384 V1.2.1 (Nanion Technologies). The access resistance and apparent membrane capacitance were estimated using built-in protocols. Current were recorded in perforated patch mode (10 μM escin) from a population of cells. […] The cells were allowed to recover in the cell hotel prior to experimentation. Currents were recorded at room temperature. […] The extracellular solution was used as the wash, reference and compound delivery solution. […] Escin is made at a 5 mM stock in water, aliquoted, and stored at −20° C. The compound plate was created at 2× concentrated in the extracellular solution. The compound was diluted to 1:2 when added to the recording well. The amount of DMSO in the extracellular solution was held constant at the level used for the highest tested concentration. A holding potential of −80 mV with a 100 ms step to 0 mV was used. […] The average mean current from 3 sweeps was calculated and the % inhibition of each compound was calculated. The % Inhibition as a function of the compound concentration was fit with a Hill equation to derive IC50, slope, min and max parameters.

SMILES	pIC50
CC(=O)Oc1cccc(-c2noc(C(C)NC(=O)c3cc(C(F)(F)F)nn3C)n2)c1 (racemic) [Compound 185, 3-(5-(1-(1-methyl-3-(trifluoromethyl)-1H-pyrazole-5-carboxamido)ethyl)-1,2,4-oxadiazol-3-yl)phenyl acetate]	4.70 to 6.00
C[C@@H](NC(=O)c1cc(C(F)(F)F)nn1C)c1nc(-c2ccc(F)c(F)c2)no1 (single isomer, unassigned) [Compound 76]	≥ 6.00
C[C@H](NC(=O)c1cc(C(F)(F)F)nn1C)c1nc(-c2ccc(F)c(F)c2)no1 (single isomer, unassigned) [Compound 77]	≥ 6.00
COC[C@@H](NC(=O)c1cc(C(F)(F)F)nn1C)c1nc(-c2cccc(C)c2)no1 (single isomer, unassigned) [Compound 80]	≥ 6.00
COC[C@H](NC(=O)c1cc(C(F)(F)F)nn1C)c1nc(-c2cccc(C)c2)no1 (single isomer, unassigned) [Compound 81]	≥ 6.00
C[C@@H](NC(=O)c1cc(C(F)(F)F)nn1C(F)F)c1nc(-c2cccc(Cl)c2)no1 (single isomer, unassigned) [Compound 82]	≥ 6.00
C[C@H](NC(=O)c1cc(C(F)(F)F)nn1C(F)F)c1nc(-c2cccc(Cl)c2)no1 (single isomer, unassigned) [Compound 83]	4.70 to 6.00
CNC(=O)C[C@@H](NC(=O)c1cc(C(F)(F)F)nn1C)c1nc(-c2cccc(F)c2)no1 (single isomer, unassigned) [Compound 114]	≤ 4.70
CNC(=O)C[C@H](NC(=O)c1cc(C(F)(F)F)nn1C)c1nc(-c2cccc(F)c2)no1 (single isomer, unassigned) [Compound 115]	≤ 4.70
Cn1nc(C(F)(F)F)cc1C(=O)NC(CC(=O)NCCO)c1nc(-c2cccc(F)c2)no1 (single isomer, unassigned) [Compound 121]	≤ 4.70
COC(=O)CC(NC(=O)c1cc(C(F)(F)F)nn1C)c1nc(-c2cccc(F)c2)no1 (single isomer, unassigned) [Compound 125, methyl 3-[3-(3-fluorophenyl)-1,2,4-oxadiazol-5-yl]-3-[[2-methyl-5-(trifluoromethyl)pyrazole-3-carbonyl]amino]propanoate]	≥ 6.00
COC(=O)CC(NC(=O)c1cc(C(F)(F)F)nn1C)c1nc(-c2cccc(F)c2)no1 (single isomer, unassigned) [Compound 126, methyl 3-[3-(3-fluorophenyl)-1,2,4-oxadiazol-5-yl]-3-[[2-methyl-5-(trifluoromethyl)pyrazole-3-carbonyl]amino]propanoate]	≥ 6.00
Cn1nc(C(F)(F)F)cc1C(=O)NC(CC(N)=O)c1nc(-c2cccc(F)c2)no1 (single isomer, unassigned) [Compound 128, N-[3-amino-1-[3-(3-fluorophenyl)-1,2,4-oxadiazol-5-yl]-3-oxo-propyl]-2-methyl-5-(trifluoromethyl)pyrazole-3-carboxamide]	≤ 4.70
Cn1nc(C(F)(F)F)cc1C(=O)NC(CC(N)=O)c1nc(-c2cccc(F)c2)no1 (single isomer, unassigned) [Compound 129, N-[3-amino-1-[3-(3-fluorophenyl)-1,2,4-oxadiazol-5-yl]-3-oxo-propyl]-2-methyl-5-(trifluoromethyl)pyrazole-3-carboxamide]	≤ 4.70
CN(C)C(=O)C[C@@H](NC(=O)c1cc(C(F)(F)F)nn1C)c1nc(-c2cccc(F)c2)no1 (single isomer, unassigned) [Compound 135]	4.70 to 6.00
CN(C)C(=O)C[C@H](NC(=O)c1cc(C(F)(F)F)nn1C)c1nc(-c2cccc(F)c2)no1 (single isomer, unassigned) [Compound 136]	4.70 to 6.00
Cn1nc(C(F)(F)F)cc1C(=O)N[C@H](CCS(C)(=O)=O)c1nc(-c2cccc(F)c2)no1 (single isomer, unassigned) [Compound 143]	≤ 4.70
Cn1nc(C(F)(F)F)cc1C(=O)N[C@@H](CCS(C)(=O)=O)c1nc(-c2cccc(F)c2)no1 (single isomer, unassigned) [Compound 144]	4.70 to 6.00
C[C@H](NC(=O)c1cc(C(F)(F)F)nn1C)c1nc(-c2ccnc(N3CCCCC3)c2)no1 (single isomer, unassigned) [Compound 209]	≥ 6.00
CC(NC(=O)c1cc(C(F)(F)F)nn1C)c1nc(-c2ccnc(N3CCCCC3)c2)no1 (single isomer, unassigned) [Compound 210]	≥ 6.00
C[C@H](NC(=O)c1cc(C(F)(F)F)nn1C)c1nc(-c2ccnc(C3CCC3)c2)no1 (single isomer, unassigned) [Compound 278]	≥ 6.00
CC(NC(=O)c1cc(C(F)(F)F)nn1C)c1nc(-c2ccnc(C3CCC3)c2)no1 (single isomer, unassigned) [Compound 279]	≥ 6.00
CC(NC(=O)c1cc(C2CC2)nn1C)c1nc(-c2ccc(Cl)cc2)no1 (stereo not drawn) [Compound 9]	≥ 6.00
Cc1cccc(-c2noc(C(C)NC(=O)c3cc(C(C)C)nn3C)n2)c1 (stereo not drawn) [Compound 10]	≥ 6.00
Cc1cccc(-c2noc(C(C)NC(=O)c3cc(C)nn3C(C)(C)C)n2)c1 (stereo not drawn) [Compound 11]	4.70 to 6.00
Cc1cccc(-c2noc(C(C)NC(=O)c3cc(C(C)(C)C)nn3C)n2)c1 (stereo not drawn) [Compound 13]	≥ 6.00
Cc1cccc(-c2noc(C(C)NC(=O)c3cc(C(F)F)nn3C)n2)c1 (stereo not drawn) [Compound 21]	≥ 6.00
Cc1cccc(-c2noc(C(C)NC(=O)c3cc(C)nn3C(C)C)n2)c1 (stereo not drawn) [Compound 22]	≥ 6.00
Cc1cccc(-c2noc(C(C)NC(=O)c3cc(C)nn3C(F)F)n2)c1 (stereo not drawn) [Compound 33]	≥ 6.00

Next, values leading:

pIC50	SMILES
4.70 to 6.00	C[C@@H](NC(=O)c1cc(C2CC2)nn1C)c1nc(-c2cccc(F)c2)no1 (single isomer, unassigned) [Compound 93]
≤ 4.70	C[C@H](NC(=O)c1cc(C2CC2)nn1C)c1nc(-c2cccc(F)c2)no1 (single isomer, unassigned) [Compound 94]
≥ 6.00	Cn1nc(C2CC2)cc1C(=O)N[C@@H](c1nc(-c2cccc(F)c2)no1)C1CC1 (single isomer, unassigned) [Compound 108]
≥ 6.00	Cn1nc(C2CC2)cc1C(=O)N[C@H](c1nc(-c2cccc(F)c2)no1)C1CC1 (single isomer, unassigned) [Compound 109]
≥ 6.00	CC(NC(=O)c1cc(C2CC2)nn1C)c1nc(-c2cccc(F)c2)no1 (stereo not drawn) [Compound 5]
≥ 6.00	CC(NC(=O)c1cc(C2CC2)nn1C)c1nc(-c2cccc(Cl)c2)no1 (stereo not drawn) [Compound 6]
≤ 4.70	CC(NC(=O)c1cc(C2CC2)nn1C)c1nc(-c2c(F)cccc2F)no1 (stereo not drawn) [Compound 7]
4.70 to 6.00	CC(NC(=O)c1cc(C2CC2)nn1C)c1nc(-c2ccc(F)cc2)no1 (stereo not drawn) [Compound 8]
≥ 6.00	CC(NC(=O)c1cc(C2CC2)nn1C)c1nc(-c2cccc(C(F)(F)F)c2)no1 (stereo not drawn) [Compound 12]
≥ 6.00	CC(C)C(NC(=O)c1cc(C2CC2)nn1C)c1nc(-c2cccc(F)c2)no1 (stereo not drawn) [Compound 45]
≥ 6.00	CCC(NC(=O)c1cc(C2CC2)nn1C)c1nc(-c2cccc(F)c2)no1 (stereo not drawn) [Compound 48]
4.70 to 6.00	Cn1nc(C2CC2)cc1C(=O)NC(Cc1ccccc1)c1nc(-c2cccc(F)c2)no1 (stereo not drawn) [Compound 49]
4.70 to 6.00	Cn1nc(C2CC2)cc1C(=O)NC(C)(C)c1nc(-c2cccc(F)c2)no1 [Compound 50]
